Laboratory results taken from PubChem BioAssay AID2060485 (Molecular Pharmacology Branch, DTP, NCI, 2025).

Tested on: A375 multi-cell spheroids with HUVEC/MSC, viability
Assay: Anticancer human tumor A375 cell line growth inhibition [GQUAD];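 further: spheroids exposed to compounds for seven days before readout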
Conditions: for IC50: curve of first compound; for viability, T/C: stronger effect = lower value
From the text: DNA G-quadruplex Stabilizer Agents in Combinations in Complex Spheroids
A high-throughput screen of multi-cell type tumor spheroids was designed to identify active combinations of DNA G-quadruplex stabilizer agents and targeted small molecules. Complex spheroids include a stromal component modeled by human endothelial cells (HUVEC) and fibroblasts modeled by human mesenchymal stem cells (MSCs). The concentration ranges selected for each drug and investigational agent were based upon clinically achievable concentrations if the clinical Cmax of the agent was known.
Compounds. The drugs and investigational agents: pidnarulex (CX-5461; NSC782164), APTO-253 (NSC789042), BRACO-19 (NSC847499), peposertib (NSC802822), ceralasertib (NSC780249), elimusertib (NSC800525), camonsertib (NSC841442), AZD-1390 (NSC803789), olaparib (NSC753686), talazoparib (NSC767125), ART-558 (NSC835418), sotorasib (NSC818433), MRTX-1133 (NSC836407), SN-38 (NSC673596), topotecan (NSC609699), etoposide (NSC141540), doxorubicin (NSC123127), gemcitabine (NSC613327), 5-fluorouracil (NSC19893), paclitaxel (NSC125973), vemurafenib (NSC761431), panobinostat (NSC761190), R-306465 (JNJ-16241199; NSC773264), adavosertib (NSC754352), TP-3654 (NSC805149), carboplatin (NSC241240), KSQ-4279 (NSC840948), and staurosporine (NSC755774) were obtained from the National Cancer Institute (NCI) Developmental Therapeutics Program Chemical Repository (34). The FDA-approved anticancer drug set is available from the NCI Developmental Therapeutics Program. […] The stock solutions were prepared in dimethyl sulfoxide (DMSO, Sigma-Aldrich, St. Louis, MO, cat. D2650) at 800-fold the tested concentration and stored at -70 degrees C prior to their use. All drugs and investigational agents were tested over a range starting from a high concentration at or near the clinical Cmax and decreasing in half-log increments. If the clinical Cmax for an agent had not been determined, the highest concentration tested was 10 microM.
2.3 Cell Culture. All cells were maintained in an incubator at 37 degrees C and 5% CO2 with 95% humidity. The PDC lines were cultured according to standard operating procedures established by the NCI PDMR. All PDCs were thawed and cultured in Matrigel-coated flasks prepared with a working solution of 1X Ham's F-12 nutrient mix, without supplementation (Invitrogen, cat. 11765054), 100 U/mL penicillin-streptomycin (Invitrogen, cat. 15140122), and 2.5% Matrigel (Corning Inc., cat. 354248) for the first three passages. The 857933-349-R-J2-PDC line was cultured in 6C/Colon 1B media, which includes advanced DMEM/F-12 (Thermo Fisher Scientific, cat. 12634028), 10 mM HEPES (Thermo Fisher Scientific, cat. 15630080), 1X GlutaMAX supplement (Thermo Fisher Scientific, cat. 35050061), 0.1 mg/mL primocin (InvivoGen, cat. ant-pm-2), 10% defined fetal bovine serum, heat inactivated (HyClone Laboratories Inc., cat. SH30070.03HI), 50% L-WRN conditioned media (ATCC, cat. CRL-3276), 1.25 mM N-Acetyl-L-cysteine (Sigma-Aldrich, cat. A9165), 10 mM nicotinamide (Sigma-Aldrich, cat. N0636), 1X B-27 supplement (Thermo Fisher Scientific, cat. 17504044), 1X N-2 supplement (Thermo Fisher Scientific, cat. 17502048), 10 microM Y-27632 dihydrochloride (Tocris Bioscience, cat. 1254), and 50 ng/mL human EGF recombinant protein (Thermo Fisher Scientific, cat. PHG0311). The 485176-168-R4-J1-PDC line was cultured in Panc media, which includes all 6C/Colon 1B media components plus 100 ng/mL human FGF-10 (Thermo Fisher Scientific, cat. 100-26), 500 nM SB-431542 (Selleckchem, cat. S1067), and gastrin (Tocris, cat. 3006).
[…]

[1] = second compound 0.0316 µM, first compound 0.0316 µM
[2] = second compound 0.0316 µM, first compound 0.1 µM
[3] = second compound 0.0316 µM, first compound 0.316 µM
[4] = second compound 0.0316 µM, first compound 1 µM
[5] = second compound 0.0316 µM, first compound 3.16 µM
[6] = second compound 0.0316 µM, first compound 10 µM
[7] = second compound 0.1 µM, first compound 0.0316 µM
[8] = second compound 0.1 µM, first compound 0.1 µM
[9] = second compound 0.1 µM, first compound 0.316 µM
[10] = second compound 0.1 µM, first compound 1 µM
[11] = second compound 0.1 µM, first compound 3.16 µM
[12] = second compound 0.1 µM, first compound 10 µM
[13] = second compound 0.316 µM, first compound 0.0316 µM
[14] = second compound 0.316 µM, first compound 0.1 µM
[15] = second compound 0.316 µM, first compound 0.316 µM
[16] = second compound 0.316 µM, first compound 1 µM
[17] = second compound 0.316 µM, first compound 3.16 µM
[18] = second compound 0.316 µM, first compound 10 µM
[19] = second compound 1 µM, first compound 0.0316 µM
[20] = second compound 1 µM, first compound 0.1 µM
[21] = second compound 1 µM, first compound 0.316 µM
[22] = second compound 1 µM, first compound 1 µM
[23] = second compound 1 µM, first compound 3.16 µM
[24] = second compound 1 µM, first compound 10 µM
[25] = second compound 3.16 µM, first compound 0.0316 µM
[26] = second compound 3.16 µM, first compound 0.1 µM
[27] = second compound 3.16 µM, first compound 0.316 µM
[28] = second compound 3.16 µM, first compound 1 µM
[29] = second compound 3.16 µM, first compound 3.16 µM
[30] = second compound 3.16 µM, first compound 10 µM
[31] = second compound 10 µM, first compound 0.0316 µM
[32] = second compound 10 µM, first compound 0.1 µM
[33] = second compound 10 µM, first compound 0.316 µM
[34] = second compound 10 µM, first compound 1 µM
[35] = second compound 10 µM, first compound 3.16 µM
[36] = second compound 10 µM, first compound 10 µM

CC(=O)O[C@H]1C(=O)[C@@]2(C)[C@H]([C@H](OC(=O)c3ccccc3)[C@]3(O)C[C@H](OC(=O)[C@H](O)[C@@H](NC(=O)c4ccccc4)c4ccccc4)C(C)=C1C3(C)C)[C@]1(OC(C)=O)CO[C@@H]1C[C@@H]2O + Cc1cnc(CNC(=O)c2c(=O)c3ccc(N4CCCN(C)CC4)nc3n3c2sc2ccccc23)cn1
IC50 (second compound 0.0316 µM): 64.2 nM | IC50 (second compound 0.1 µM): 36.1 nM | IC50 (second compound 0.316 µM): < 31.6 nM | IC50 (second compound 1 µM): < 31.6 nM | IC50 (second compound 3.16 µM): < 31.6 nM | IC50 (second compound 10 µM): < 31.6 nM | viability, T/C [1]: 77.3% | viability, T/C [2]: 33% | viability, T/C [3]: 18.5% | viability, T/C [4]: 14.2% | viability, T/C [5]: 14.7% | viability, T/C [6]: 19% | viability, T/C [7]: 53.3% | viability, T/C [8]: 24.9% | viability, T/C [9]: 17.8% | viability, T/C [10]: 21.1% | viability, T/C [11]: 18.1% | viability, T/C [12]: 23.2% | viability, T/C [13]: 40.1% | viability, T/C [14]: 25.9% | viability, T/C [15]: 25.2% | viability, T/C [16]: 21.2% | viability, T/C [17]: 20.1% | viability, T/C [18]: 22.8% | viability, T/C [19]: 35% | viability, T/C [20]: 24.3% | viability, T/C [21]: 26.8% | viability, T/C [22]: 28.2% | viability, T/C [23]: 31% | viability, T/C [24]: 32.1% | viability, T/C [25]: 30.1% | viability, T/C [26]: 23.1% | viability, T/C [27]: 24.4% | viability, T/C [28]: 28.7% | viability, T/C [29]: 28.2% | viability, T/C [30]: 33.7% | viability, T/C [31]: 26.7% | viability, T/C [32]: 23.3% | viability, T/C [33]: 23.5% | viability, T/C [34]: 23.3% | viability, T/C [35]: 26% | viability, T/C [36]: 29.6%

CC1COCCN1c1cc(C2(O)CC3CCC(C2)O3)c2cnn(-c3ccn[nH]3)c2n1 (stereo unspecified) + Cc1cnc(CNC(=O)c2c(=O)c3ccc(N4CCCN(C)CC4)nc3n3c2sc2ccccc23)cn1
IC50 (second compound 0.0316 µM): 127 nM | IC50 (second compound 0.1 µM): 57.5 nM | IC50 (second compound 0.316 µM): < 31.6 nM | IC50 (second compound 1 µM): < 31.6 nM | IC50 (second compound 3.16 µM): < 31.6 nM | IC50 (second compound 10 µM): < 31.6 nM | viability, T/C [1]: 86.1% | viability, T/C [2]: 51.7% | viability, T/C [3]: 38.3% | viability, T/C [4]: 15.7% | viability, T/C [5]: 10.2% | viability, T/C [6]: 7.77% | viability, T/C [7]: 57% | viability, T/C [8]: 42.5% | viability, T/C [9]: 31.2% | viability, T/C [10]: 15.2% | viability, T/C [11]: 11% | viability, T/C [12]: 7.11% | viability, T/C [13]: 38% | viability, T/C [14]: 29.7% | viability, T/C [15]: 28.9% | viability, T/C [16]: 19.1% | viability, T/C [17]: 10.3% | viability, T/C [18]: 7.26% | viability, T/C [19]: 40.9% | viability, T/C [20]: 32% | viability, T/C [21]: 27.3% | viability, T/C [22]: 14.4% | viability, T/C [23]: 10.5% | viability, T/C [24]: 7.81% | viability, T/C [25]: 31.9% | viability, T/C [26]: 27.4% | viability, T/C [27]: 23.4% | viability, T/C [28]: 14.3% | viability, T/C [29]: 10.1% | viability, T/C [30]: 5.41% | viability, T/C [31]: 24.7% | viability, T/C [32]: 22.5% | viability, T/C [33]: 21.8% | viability, T/C [34]: 13.7% | viability, T/C [35]: 9.6% | viability, T/C [36]: 4.53%

COc1ncnc(C2CC2)c1-c1ncc2cnn(Cc3ccc(-c4nc(C(F)(F)F)cn4C(C)C)cc3)c2n1 + Cc1cnc(CNC(=O)c2c(=O)c3ccc(N4CCCN(C)CC4)nc3n3c2sc2ccccc23)cn1
IC50 (second compound 0.0316 µM): > 10000 nM | IC50 (second compound 0.1 µM): > 10000 nM | IC50 (second compound 0.316 µM): < 31.6 nM | IC50 (second compound 1 µM): < 31.6 nM | IC50 (second compound 3.16 µM): < 31.6 nM | IC50 (second compound 10 µM): < 31.6 nM | viability, T/C [1]: 101% | viability, T/C [2]: 110% | viability, T/C [3]: 102% | viability, T/C [4]: 103% | viability, T/C [5]: 104% | viability, T/C [6]: 111% | viability, T/C [7]: 69.3% | viability, T/C [8]: 73.5% | viability, T/C [9]: 57.3% | viability, T/C [10]: 61.4% | viability, T/C [11]: 70.3% | viability, T/C [12]: 61.2% | viability, T/C [13]: 49.3% | viability, T/C [14]: 43.6% | viability, T/C [15]: 47.1% | viability, T/C [16]: 49% | viability, T/C [17]: 46.2% | viability, T/C [18]: 47.7% | viability, T/C [19]: 36.2% | viability, T/C [20]: 35% | viability, T/C [21]: 34.5% | viability, T/C [22]: 38.5% | viability, T/C [23]: 33.5% | viability, T/C [24]: 33.5% | viability, T/C [25]: 29.6% | viability, T/C [26]: 37.2% | viability, T/C [27]: 30.9% | viability, T/C [28]: 33.5% | viability, T/C [29]: 31.7% | viability, T/C [30]: 33.9% | viability, T/C [31]: 30% | viability, T/C [32]: 26% | viability, T/C [33]: 27.6% | viability, T/C [34]: 26.4% | viability, T/C [35]: 32.7% | viability, T/C [36]: 31.9%
